Test results from patent US20220160798A1 (priority 2019, published 2022).

Columns and labels:
ICR mice [1] = experiment: Morris water maze test, scopolamine-induced dementia; type: in vivo
Description: The deterioration of cognitive ability of Aβ1-42 (Amyloid Beta 1-42) was evaluated in 4-week-old male mice. ICR mice (Bio Link, Eumseong-gun, Chungbuk, Korea) were purchased, adapted to an experimental animal room for one week, and randomly consisted of 6 mice in each group. As experimental groups, a group administered with the Spirulina extract (hereinafter, SM70EE) produced by Example 1 by concentration and a group administered with chlorophyll a were used. As a control group, a group without treating a Spirulina extract, and as a comparative group, a group administered with scopolamine causing dementia and a group administered with donepezil as a dementia therapeutic agent were used. […]
In Experimental Example above, a passive avoidance analysis evaluation test was conducted by applying a Morris's method. […] For adaptation, only the swimming practice was performed for 60 seconds without a platform on the first day of the experiment, a test trial was performed for 4 days in the pool disposed with the platform from the second day, and then escape latency time which was time taken for experimental mice administered with a drug to escape on the platform was measured. […]

ICR mice [2] = experiment: Passive avoidance test, scopolamine-induced dementia; type: in vivo
Description: The deterioration of cognitive ability of Aβ1-42 (Amyloid Beta 1-42) was evaluated in 4-week-old male mice. ICR mice (Bio Link, Eumseong-gun, Chungbuk, Korea) were purchased, adapted to an experimental animal room for one week, and randomly consisted of 6 mice in each group. As experimental groups, a group administered with the Spirulina extract (hereinafter, SM70EE) produced by Example 1 by concentration and a group administered with chlorophyll a were used. As a control group, a group without treating a Spirulina extract, and as a comparative group, a group administered with scopolamine causing dementia and a group administered with donepezil as a dementia therapeutic agent were used. During the adaptation period, the feed and water were freely supplied without limitation, and the temperature of 22±2° C. and the humidity of 50±10% were maintained, and the contrast was adjusted to a period of 12 hours (09:00 to 21:00).
An avoidance box (40×20×20 cm) of a passive avoidance measuring device was divided into a light box and a dark box, and a door was installed between the rooms so that the experimental mice moved. […]
After 24 hours, the same test was conducted, and the escape latency time while the experimental mice moved was measured. […]

For `CN1[C@@H]2C[C@@H](OC(=O)[C@H](CO)c3ccccc3)C[C@H]1[C@@H]1O[C@@H]12` [scopolamine], the escape latency time (ICR mice [1]; scopolamine only, 1 mg/kg s.c.) was “increased” and the latency time (ICR mice [2]; scopolamine only, 1 mg/kg s.c., vs control group) was “significantly reduced”.
For `C=Cc1c(C)c2cc3nc(c4c5[n-]c(cc6nc(cc1[n-]2)C(C)=C6CC)c(C)c5C(=O)[C@@H]4C(=O)OC)[C@@H](CCC(=O)OC/C=C(\C)CCC[C@H](C)CCC[C@H](C)CCCC(C)C)[C@@H]3C.[Mg+2]` [chlorophyll a], the escape latency time (ICR mice [1]; 10 mg/kg oral, scopolamine 1 mg/kg s.c.) was “decreased” and the latency time (ICR mice [2]; 10 mg/kg oral, scopolamine 1 mg/kg s.c., vs scopolamine group) was “increased”.
